Test results published in patent US4097471A, “Polypeptides with morphine-like activity” (American Home Products Corporation, priority 1977, dated 1978).
Peptide text beside a SMILES is read from it.

Experiments:
analgesia = conditions: injection in the brain ventricle in rats; fully reversible by naloxone; cited from earlier work
[1] = tested on: pain threshold (tail-flick latency); experiment: rat-tail flick method, intracerebroventricular injection; type: in vivo; conditions: for Mean Latency ± SEM, Drug / Mean % Change ± SEM: injected into lateral ventricle; for Mean Latency ± SEM, Drug / Mean % Change ± SEM / analgesic effect / pain threshold: rat; for Mean % Change ± SEM: drug minus baseline latency; for analgesic effect / pain threshold: injected into the lateral brain ventricle
Protocol: In this test method, which is a standard test for analgesia, a light beam is focused on the tip of the rat's tail, and the pain threshold of the animal is measured by the latency of the rat to remove his tail from the noxious heat source. When tested by the rat-tail flick method by intracerebroventricular injection, according to the procedure of Belluzzi et al., Nature, 260, 625 (1976), the polypeptides of this invention produced the effects set forth in Table I.
*All drugs were dissolved in […]. of Ringer's solution and injected int
the lateral ventricle through permanently-indwelling cannulae.

opiate receptors = experiment: binding to opiate receptors in vitro, displacement of 3H-naloxone in rat brain homogenates

CC(C)C[C@H](NC(=O)[C@H](Cc1ccccc1)NC(=O)CNC(=O)CNC(=O)[C@@H](N)Cc1ccc(O)cc1)C(=O)O [Leucine-Enkephalin, H-Tyr-Gly-Gly-Phe-Leu-OH, reference compound]
analgesia (analgesia): induce a profound analgesia | Mean Latency ± SEM, Drug ([1]; dose 100 μg): 5.11 ± 0.34 | Mean % Change ± SEM ([1]; dose 100 μg): 31.7 ± 11.5%

CSCC[C@H](NC(=O)[C@H](Cc1ccccc1)NC(=O)CNC(=O)CNC(=O)[C@@H](N)Cc1ccc(O)cc1)C(=O)O [Methionine-Enkaphalin, H-Tyr-Gly-Gly-Phe-Met-OH]
analgesia (analgesia): induce a profound analgesia

CC(C)C[C@H](NC(=O)[C@H](Cc1ccccc1)NC(=O)CNC(=O)CNC(=O)[C@@H](N)Cc1ccc(O)cc1)C(=O)N[C@H](C(=O)N[C@@H](CO)C(=O)N[C@@H](CCC(=O)O)C(=O)N[C@@H](CCCCN)C(=O)N[C@@H](CO)C(=O)N[C@@H](CCC(N)=O)C(=O)N[C@H](C(=O)N1CCC[C@H]1C(=O)N[C@@H](CC(C)C)C(=O)N[C@H](C(=O)N[C@H](C(=O)O)[C@@H](C)O)C(C)C)[C@@H](C)O)[C@@H](C)O [β-LPH 61-76 (Leu^65), L-Tyrosyl-glycyl-glycyl-L-phenylalanyl-L-leucyl-L-threonyl-L-seryl-L-glutamyl-L-lysyl-L-seryl-L-glutaminyl-L-threonyl-L-prolyl-L-leucyl-L-valyl-L-threonine] (H-YGGFLTSEKSQTPLVT-OH)
binding to opiate receptors in vitro (opiate receptors; in vitro): weak binding | displacing 3H-naloxone from binding sites (opiate receptors; rat brain homogenates): capable of displacing 3H-naloxone | Mean Latency ± SEM, Drug ([1]; dose 10 μg): 4.33 ± 0.05 | Mean % Change ± SEM ([1]; dose 10 μg): 34.32 ± 8.75% | Mean Latency ± SEM, Drug ([1]; dose 100 μg): 6.26 ± 0.96 | Mean % Change ± SEM ([1]; dose 100 μg): 86.02 ± 30.79% | Mean Latency ± SEM, Drug ([1]; dose 200 μg): 4.16 | Mean % Change ± SEM ([1]; dose 200 μg): 3.04% | analgesic activity at low dose ([1]; dose as low as 10 μg): active | duration of analgesic effect ([1]; dose as low as 10 μg): > 2 h | analgesic effect / pain threshold ([1]; listed as polypeptide of Formula I): exerts an analgesic effect | analgesic effect / pain threshold ([1]; listed as polypeptide of this invention): produced an increase in pain threshold
